Our source for the Migration index and Spreading values is ChEMBL document CHEMBL1122412, “Synthesis of a biologically active fluorescent muramyl dipeptide congener” (1983).

SMILES strings stand for the structures. Values joined by “and” are separate entries in the source; they are usually repeats but may differ in a detail not shown here. Identical values can stand only once.

Common to all, as to type: functional
For test [1], the species on record is Cavia porcellus. Description: Ability of MDP to inhibit migration of cultured guinea pig peritoneal exudate macrophages at 0.01 ug/mL concentration in expt 2.
Test [2] is filed under the species Cavia porcellus. Description: Ability of MDP to inhibit migration of cultured guinea pig peritoneal exudate macrophages at 0.01 ug/mL concentration in expt 3.
For test [3], the species on record is Cavia porcellus. Briefly: Ability of MDP to induce spreading of cultured guinea pig peritoneal exudate macrophages at 1 ug/mL concentration.
The species named for test [4] is Cavia porcellus. Briefly: Ability of MDP to inhibit migration of cultured guinea pig peritoneal exudate macrophages at 1 ug/mL concentration in expt 3.
For test [5], the species on record is Cavia porcellus. Description: Ability of MDP to inhibit migration of cultured guinea pig peritoneal exudate macrophages at 0.1 ug/mL concentration in expt 4.
Test [6] is filed under the species Cavia porcellus. Briefly: Ability of MDP to inhibit migration of cultured guinea pig peritoneal exudate macrophages at 10 ug/mL concentration in expt 4.
The species named for test [7] is Cavia porcellus. Briefly: Ability of MDP to inhibit migration of cultured guinea pig peritoneal exudate macrophages at 1 ug/mL concentration in expt 2.
For test [8], the species on record is Cavia porcellus. Briefly: Ability of MDP to inhibit migration of cultured guinea pig peritoneal exudate macrophages at 1 ug/mL concentration in expt 1.
The species entered for test [9] is Cavia porcellus. Briefly: Ability of MDP to inhibit migration of cultured guinea pig peritoneal exudate macrophages at 0.1 ug/mL concentration in expt 1.
The species entered for test [10] is Cavia porcellus. Briefly: Ability of MDP to inhibit migration of cultured guinea pig peritoneal exudate macrophages at 1 ug/mL concentration in expt 5.
For test [11], the species on record is Cavia porcellus. Briefly: Ability of MDP to inhibit migration of cultured guinea pig peritoneal exudate macrophages at 0.01 ug/mL concentration in expt 1.
Test [12] is filed under the species Cavia porcellus. Briefly: Ability of MDP to induce spreading of cultured guinea pig peritoneal exudate macrophages at 0.01 ug/mL concentration.
The species entered for test [13] is Cavia porcellus. Description: Ability of MDP to induce spreading of cultured guinea pig peritoneal exudate macrophages at 10 ug/mL concentration.
Test [14] is filed under the species Cavia porcellus. Briefly: Ability of MDP to inhibit migration of cultured guinea pig peritoneal exudate macrophages at 10 ug/mL concentration in expt 5.
The species named for test [15] is Cavia porcellus. Briefly: Ability of MDP to inhibit migration of cultured guinea pig peritoneal exudate macrophages at 1 ug/mL concentration in expt 4.
The species entered for test [16] is Cavia porcellus. Briefly: Ability of MDP to induce spreading of cultured guinea pig peritoneal exudate macrophages at 0.1 ug/mL concentration.
The species named for test [17] is Cavia porcellus. Description: Ability of MDP to inhibit migration of cultured guinea pig peritoneal exudate macrophages at 0.1 ug/mL concentration in expt 2.
The species entered for test [18] is Cavia porcellus. Description: Ability of MDP to inhibit migration of cultured guinea pig peritoneal exudate macrophages at 0.1 ug/mL concentration in expt 3.
The species named for test [19] is Cavia porcellus. Briefly: Ability of MDP to inhibit migration of cultured guinea pig peritoneal exudate macrophages at 0.1 ug/mL concentration in expt 5.
Test [20] is filed under the species Cavia porcellus. Briefly: Ability of L,L-MDP to inhibit migration of cultured guinea pig peritoneal exudate macrophages at 0.1 ug/mL concentration in expt 4.
Test [21] is filed under the species Cavia porcellus. Description: Ability of I-MDP to inhibit migration of cultured guinea pig peritoneal exudate macrophages at 1 ug/mL concentration in expt 2.
The species named for test [22] is Cavia porcellus. Briefly: Ability of P-MDP to inhibit migration of cultured guinea pig peritoneal exudate macrophages at 1 ug/mL concentration in expt 3.
Test [23] is filed under the species Cavia porcellus. Briefly: Ability of I-MDP to inhibit migration of cultured guinea pig peritoneal exudate macrophages at 0.01 ug/mL concentration in expt 1.
The species named for test [24] is Cavia porcellus. Briefly: Ability of P-MDP to induce spreading of cultured guinea pig peritoneal exudate macrophages at 0.01 ug/mL concentration.
Test [25] is filed under the species Cavia porcellus. Description: Ability of I-MDP to inhibit migration of cultured guinea pig peritoneal exudate macrophages at 1 ug/mL concentration in expt 1.
The species entered for test [26] is Cavia porcellus. Description: Ability of L,L-MDP to inhibit migration of cultured guinea pig peritoneal exudate macrophages at 10 ug/mL concentration in expt 5.
For test [27], the species on record is Cavia porcellus. Briefly: Ability of I-MDP to induce spreading of cultured guinea pig peritoneal exudate macrophages at 10 ug/mL concentration.
The species named for test [28] is Cavia porcellus. Briefly: Ability of P-MDP to induce spreading of cultured guinea pig peritoneal exudate macrophages at 10 ug/mL concentration.
Test [29] is filed under the species Cavia porcellus. Description: Ability of L,L-MDP to inhibit migration of cultured guinea pig peritoneal exudate macrophages at 0.01 ug/mL concentration in expt 4.
Test [30] is filed under the species Cavia porcellus. Description: Ability of I-MDP to inhibit migration of cultured guinea pig peritoneal exudate macrophages at 10 ug/mL concentration in expt 2.
For test [31], the species on record is Cavia porcellus. Description: Ability of L,L-MDP to induce spreading of cultured guinea pig peritoneal exudate macrophages at 0.1 ug/mL concentration.
The species entered for test [32] is Cavia porcellus. Briefly: Ability of L,L-MDP to induce spreading of cultured guinea pig peritoneal exudate macrophages at 10 ug/mL concentration.
The species named for test [33] is Cavia porcellus. Briefly: Ability of P-MDP to inhibit migration of cultured guinea pig peritoneal exudate macrophages at 0.1 ug/mL concentration in expt 3.
Test [34] is filed under the species Cavia porcellus. Briefly: Ability of I-MDP to induce spreading of cultured guinea pig peritoneal exudate macrophages at 0.1 ug/mL concentration.
The species entered for test [35] is Cavia porcellus. Briefly: Ability of P-MDP to inhibit migration of cultured guinea pig peritoneal exudate macrophages at 0.01 ug/mL concentration in expt 2.
Test [36] is filed under the species Cavia porcellus. Briefly: Ability of I-MDP to induce spreading of cultured guinea pig peritoneal exudate macrophages at 1 ug/mL concentration.
For test [37], the species on record is Cavia porcellus. Description: Ability of P-MDP to induce spreading of cultured guinea pig peritoneal exudate macrophages at 1 ug/mL concentration.
The species named for test [38] is Cavia porcellus. Description: Ability of I-MDP to inhibit migration of cultured guinea pig peritoneal exudate macrophages at 0.1 ug/mL concentration in expt 1.
The species entered for test [39] is Cavia porcellus. Briefly: Ability of P-MDP to inhibit migration of cultured guinea pig peritoneal exudate macrophages at 1 ug/mL concentration in expt 4.
The species named for test [40] is Cavia porcellus. Description: Ability of L,L-MDP to inhibit migration of cultured guinea pig peritoneal exudate macrophages at 1 ug/mL concentration in expt 4.
Test [41] is filed under the species Cavia porcellus. Description: Ability of P-MDP to induce spreading of cultured guinea pig peritoneal exudate macrophages at 0.1 ug/mL concentration.
The species named for test [42] is Cavia porcellus. Briefly: Ability of P-MDP to inhibit migration of cultured guinea pig peritoneal exudate macrophages at 10 ug/mL concentration in expt 4.
The species entered for test [43] is Cavia porcellus. Briefly: Ability of P-MDP to inhibit migration of cultured guinea pig peritoneal exudate macrophages at 0.01 ug/mL concentration in expt 3.
For test [44], the species on record is Cavia porcellus. Description: Ability of L,L-MDP to induce spreading of cultured guinea pig peritoneal exudate macrophages at 0.01 ug/mL concentration.
For test [45], the species on record is Cavia porcellus. Description: Ability of L,L-MDP to induce spreading of cultured guinea pig peritoneal exudate macrophages at 1 ug/mL concentration.
Test [46] is filed under the species Cavia porcellus. Briefly: Ability of I-MDP to inhibit migration of cultured guinea pig peritoneal exudate macrophages at 0.1 ug/mL concentration in expt 2.
For test [47], the species on record is Cavia porcellus. Briefly: Ability of I-MDP to induce spreading of cultured guinea pig peritoneal exudate macrophages at 0.01 ug/mL concentration.

`CC(=O)N[C@@H]1[C@@H](O[C@H](C)C(=O)N[C@@H](C)C(=O)N[C@H](CCC(=O)[O-])C(N)=O)[C@H](O)[C@@H](COc2nc(O)nc(N=C3C=CC(=C4c5ccc(O)cc5Oc5cc(O)ccc54)C(C(=O)[O-])=C3)n2)O[C@H]1O.[Na+].[Na+]`: the Migration index in test [1] is listed as 84; in [2], 62; in [4], 18; in [5], 51; in [6], 53; in [7], 60. For the same compound, the Migration index in [8] was found to be 63; in test [9], 102; in test [10] it was 70; in test [11], 73; in [14] it was 74; in [15] it was 49. The values for the Migration index in test [17], in [18] and in test [19] were 52, 27 and 74, respectively. Also, the Spreading in [3] worked out at 74.3%; in test [12] it was 45%; in [13] it was 73.3%; in test [16], 68.5%.
Take `CC(=O)N[C@H]1C(O)O[C@H](CO)[C@@H](O)[C@@H]1O[C@H](C)C(=O)N[C@@H](C)C(=O)N[C@H](CCC(=O)O)C(N)=O` (some centres not stated) [MURAMYL DIPEPTIDE]: the Migration index in [20] is 58; in [21], 61 and 64; in test [22], 17 and 34; in test [23], 119 and 92 and 108; in test [25] it was 70 and 114; in test [26], 65. Also, the Migration index was 54 in test [29]; 64 in [30]; 52 and 34 and 26 in [33]; 63 in test [35]; 68 and 88 in [38]; 62 in test [39]. For the same compound, the Migration index in test [40] was 52; in [42] it was 52 and 63; in test [43], 12; in [46] it was 64 and 68. The Spreading came out at 62.5% in test [24]; 80% in test [27]; 79% in [28]; 56% in [31]; 76% in test [32]; 72.5% in test [34]. In addition, the Spreading in [36] came out at 73%; in test [37], 75.5%; in test [41] it was 80%; in test [44], 48%; in [45], 51.5%; in [47], 50%.
